Values of other authors in patent US6200975A, “Substituted 1,2,4-triazolo[3,4-a]phthalazine derivatives as GABA alpha 5 ligands” (Merck Sharp & Dohme Limited, priority 1997, dated 2001).

Details: reported by McNamara and Skelton

Compound: COC(=O)c1cc2c(cn1)[nH]c1ccccc12 [β-CCM]
- spatial learning in the Morris watermaze: enhanced spatial learning
